{
  "source": "patent US9335326B2",
  "about": "“Compositions and methods for characterizing a myopathy” (The Johns Hopkins University, priority 2010, dated 2016)",
  "key": {"[1]": {"system": "anti-200/100 autoantibody-positive patients", "experiment": "Treatment response (objective improvement in strength) of anti-200/100 autoantibody-positive patients with necrotizing myopathy", "type": "in vivo, human", "source_text": "Medication regimens and treatment responses (based on objective improvements in strength) were variable. The clinical characteristics of the 16 anti-200/100 autoantibody-positive patients are available. […] Six (43%) of the 14 patients experienced a relapse when immunosuppressive medication was tapered or withdrawn. Seven […] of the 14 patients are currently undergoing tapering of their immunosuppressive medications and have not experienced a relapse to date. Only 1 patient had complete tapering of immunosuppressive medications without experiencing a relapse of weakness.\nTwo hundred twenty-five patients with banked sera, muscle biopsy specimens available for review, and a myopathy as defined by proximal muscle weakness, elevated creatine kinase (CK)levels, myopathic electromyography (EMG) findings, muscle edema on magnetic resonance imaging (MRI), and/or features of myopathy on muscle biopsy were enrolled in a longitudinal study, approved by the Johns Hopkins Institutional Review Board, from March 2007 through December 2008. […]"}, "HeLa cells": {"system": "HeLa cells", "experiment": "Immunoprecipitation of 200-kd and 100-kd autoantigens from radiolabeled lysates of mevinolin-treated HeLa cells with patient serum", "type": "cell-based", "details": "HeLa cells pretreated for 24 hours with 10 pM mevinolin versus vehicle (DMSO) alone; FIG. 5A", "description": "Given the strong association of statin use with the development of these anti-200/100-kd autoantibodies, HeLa cells were labelled with ^35S-methionine/cysteine after pretreatment for 24 hours with either 10 pM mevinolin or vehicle (DMSO) alone. To validate the protein equivalence of these lysates, immunoprecipitations were performed using antibodies against Mi-2 or PM-Scl. As anticipated, equal amounts of Mi-2 and the 5 protein components of the PM-Scl complex were detected in each lysate type.\nSerum samples collected from each patient were stored at −80° C. HeLa cells cultured using standard procedures were radiolabeled for two hours with 100 μCi/ml ^35S-methionine and cysteine (MP Biomedicals, Solon, Ohio) in methionine-free and cysteine-free medium. The cells were subsequently lysed in buffer A (50 mM Tris pH 7.4, 150 mM NaCl, […], 0.5% Nonidet P40, 0.5% sodium deoxycholate, 0.1% sodium dodecyl sulfate (SDS), and a protease inhibitor cocktail). Each 10-cm dish was lysed in 1 ml buffer A and was used for 10 immunoprecipitations. Immunoprecipitations were performed by adding 1 μl of patient sera to 100 μl radiolabeled lysate and bringing the volume to 1 ml with buffer B (1% Nonidet P40, 20 mM Tris pH 7.4, 150 mM NaCl, 1 mM EDTA, and a protease inhibitor cocktail) and rotating the mix for one hour at 4° C. […]"}, "[2]": {"system": "human anti-HMGCR antibodies", "experiment": "Competition immunoprecipitation: patient sera preincubated with unlabeled C-terminal HMGCR, then IP of full-length IVTT HMGCR", "type": "binding", "details": "anti-HMGCR-positive sera preincubated with increasing concentrations of unlabeled C-terminal HMGCR; FIG. 7A", "source_text": "HMG-CoA reductase is a membrane protein with a small extracellular domain, seven membrane-spanning domains, and an intracellular catalytic domain. To define the region(s) of the protein recognized by sera from patients with anti-HMGCR antibodies, 35S-methionine-labeled full-length HMGCR protein, an N-terminal fragment including the extracellular and membrane-spanning domains (aa 1-377 of SEQ ID NO: 1), and a C-terminal fragment including the intracellular portion of the molecule (aa 340-888 of SEQ ID NO: 1) were synthesized. Serum from anti-HMGCR-positive patients consistently immunoprecipitated full-length HMGCR and the C-terminal fragment, but not the N-terminal fragment (FIG. 6). When anti-HMGCR-positive sera were preincubated with increasing concentrations of unlabeled C-terminal HMGCR prior to immunoprecipitation of 35S-methionine-labeled full-length HMGCR protein, immunoprecipitation was abolished (FIG. 7A).\nDNA encoding full-length human HMG-CoA reductase was purchased from Invitrogen (Carlsbad, Calif.). […]\nOne microliter of each patient serum was preincubated (30 minutes at 4° C. in 50 μl) with the catalytic domain of human HMG-CoA reductase (aa 426-888 of SEQ ID NO: 1) expressed as a fusion protein with glutathione S-transferase (hereinafter referred to as “C-terminal HMG-CoA reductase”; Sigma). […]"}},
  "data": [
    {"molecule": "Rituximab: immunosuppressant drug", "values": [
      {"measurement": "benefit as adjunct therapy", "setting": "[1]; added to prednisone and azathioprine or methotrexate", "result": "helpful adjuncts"}
    ]},
    {"molecule": "C[C@]12C=CC(=O)C=C1CC[C@@H]1[C@@H]2C(=O)C[C@@]2(C)[C@H]1CC[C@]2(O)C(=O)CO", "note": "[prednisone]", "values": [
      {"measurement": "initial response to prednisone", "setting": "[1]; most patients, combination immunosuppressive therapy was required", "result": "very modest initial response"}
    ]},
    {"molecule": "CC[C@H](C)C(=O)O[C@H]1C[C@@H](C)C=C2C=C[C@H](C)[C@H](CC[C@@H]3C[C@@H](O)CC(=O)O3)[C@H]21", "note": "[mevinolin]", "values": [
      {"measurement": "increased levels of both the 200-kd and the 100-kd protein immunoprecipitated", "setting": "HeLa cells", "result": 3, "unit": "fold"}
    ]},
    {"molecule": "C-terminal HMGCR: catalytic domain of human HMG-CoA reductase (aa 426-888 of SEQ ID NO: 1) expressed as a fusion protein with glutathione S-transferase (Sigma) (protein, UniProt P04035 426-888, looked up, fragment, GST fusion) SSVLVTQEPEIELPREPRPNEECLQILGNAEKGAKFLSDAEIIQLVNAKHIPAYKLETLMETHERGVSIRRQLLSKKLSEPSSLQYLPYRDYNYSLVMGACCENVIGYMPIPVGVAGPLCLDEKEFQVPMATTEGCLVASTNRGCRAIGLGGGASSRVLADGMTRGPVVRLPRACDSAEVKAWLETSEGFAVIKEAFDSTSRFARLQKLHTSIAGRNLYIRFQSRSGDAMGMNMISKGTEKALSKLHEYFPEMQILAVSGNYCTDKKPAAINWIEGRGKSVVCEAVIPAKVVREVLKTTTEAMIEVNINKNLVGSAMAGSIGGYNAHAANIVTAIYIACGQDAAQNVGSSNCITLMEASGPTNEDLYISCTMPSIEIGTVGGGTNLLPQQACLQMLGVQGACKDNPGENARQLARIVCGTVMAGELSLMAALAAGHLVKSHMIHNRSKINLQDLQGACTKKTA", "values": [
      {"measurement": "immunoprecipitation of 35S-methionine-labeled full-length HMGCR protein", "setting": "[2]", "result": "abolished"}
    ]}
  ]
}
